Like-named read-outs stand apart in the source and are kept apart here.

One assay deals with Pim1 kinase (Homo sapiens, UniProt P11309). The assay is described as follows: Pim1 ATP depletion assay.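 Further: Luciferase-luciferin luminescence readout of residual ATP after PIM1 transfers phosphate to a peptide substrate, 40 µM ATP added, reaction run to roughly half ATP consumption.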 The assay is classed as biochemical.
The test system of a further assay is HEL 92.1.7 cells. The assay can be described thus: Cell proliferation assay (CellTiter-Glo), HEL 92.1.7. The conditions noted are these: Homo sapiens, read-out: EC50 (μM) HEL 92.1.7. The assay is classed as cell-based. In a few lines:
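Cells in RPMI1640 with 10% FBS were seeded at 1000 cells/well and exposed to compound dilutions from DMSO stocks for 3 days at 37 °C. Viability was read by CellTiter-Glo luminescence. EC50 was derived from percent inhibition relative to DMSO-only and control-compound wells.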

The target of the next assay is Pim2 kinase (Homo sapiens, UniProt Q9P1W9). The assay is described as follows: Pim2 ATP depletion assay.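 Further: Luciferase-based luminescent readout of ATP remaining after PIM2 phosphorylates a BAD peptide, final 5 nM enzyme, 4 µM ATP, 10 µM peptide, 2.5% DMSO, run to roughly half ATP consumption.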 The class given is biochemical.
Pim2 kinase, sequence (Q9P1W9 whole entry): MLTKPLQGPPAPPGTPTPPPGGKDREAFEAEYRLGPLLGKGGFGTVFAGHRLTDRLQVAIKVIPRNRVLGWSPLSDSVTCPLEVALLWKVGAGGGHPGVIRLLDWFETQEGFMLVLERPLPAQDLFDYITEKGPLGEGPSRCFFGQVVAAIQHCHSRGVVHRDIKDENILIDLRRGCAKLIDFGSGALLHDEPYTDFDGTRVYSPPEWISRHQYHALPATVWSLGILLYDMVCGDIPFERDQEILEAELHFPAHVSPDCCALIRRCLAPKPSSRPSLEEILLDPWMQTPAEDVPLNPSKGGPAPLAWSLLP
In the next assay the target is Pim3 kinase (Homo sapiens, UniProt Q86V86). The assay is described as follows: Pim3 ATP depletion assay. The class given is biochemical.
Assay [1] has as its system MM1.s (human myeloma cell line). The assay is described as follows: Cell proliferation assay (CellTiter-Glo), MM1.s. As to conditions: MM1.s cells. The assay is classed as cell-based. The protocol: (§1) KMS 11 (human myeloma cell line), were cultured in IMDM supplemented with 10% FBS, sodium pyruvate and antibiotics. Cells were plated in the same medium at a density of 2000 cells per well into 96 well tissue culture plates, with outside wells vacant, on the day of assay. MM1.s (human myeloma cell line), were cultured in RPMI1640 supplemented with 10% FBS, sodium pyruvate and antibiotics. Cells were plated in the same medium at a density of 5000 cells per well into 96 well tissue culture plates, with outside wells vacant, on the day of assay.
(§2) Test compounds supplied in DMSO were diluted into DMSO at 500 times the desired final concentrations before dilution into culture media to 2 times final concentrations. Equal volumes of 2× compounds were added to the cells in 96 well plates and incubated at 37° C. for 3 days.
(§3) After 3 days plates were equilibrated to room temperature and equal volume of CellTiter-Glow Reagent (Promega) was added to the culture wells. The plates were agitated briefly and luminescent signal was measured with luminometer. The percent inhibition of the signal seen in cells treated with DMSO alone vs. cells treated with control compound was calculated and used to determine EC50 values (i.e., the concentration of a test compound that is required to obtain 50% of the maximum effect in the cells) for tested compounds, as shown in Example 763.
(Cellular ATP, detected with luciferase, serves as a proxy for viable cell number.)

The test system of assay [2] is KMS 11 (human myeloma cell line). The assay is described as follows: Cell proliferation assay (CellTiter-Glo), KMS 11. The conditions noted are these: KMS11 cells. The assay is classed as cell-based. The protocol:
as §1, §2, §3

Another assay addresses KDR kinase (Homo sapiens, UniProt P35968). The assay is described as follows: KDR AlphaScreen assay. The conditions noted are these: KDR IC50 (μM). For orientation: In Alpha technology, singlet oxygen from a donor bead excites a nearby acceptor bead.
The mark [3] stands for this setting: Pim1 ATP depletion assay, read-out: IC50 (μM) PIM1.
[4] abbreviates: Pim1 ATP depletion assay, read-out: PIM1 IC50.

Pim1 kinase, sequence (P11309 whole entry): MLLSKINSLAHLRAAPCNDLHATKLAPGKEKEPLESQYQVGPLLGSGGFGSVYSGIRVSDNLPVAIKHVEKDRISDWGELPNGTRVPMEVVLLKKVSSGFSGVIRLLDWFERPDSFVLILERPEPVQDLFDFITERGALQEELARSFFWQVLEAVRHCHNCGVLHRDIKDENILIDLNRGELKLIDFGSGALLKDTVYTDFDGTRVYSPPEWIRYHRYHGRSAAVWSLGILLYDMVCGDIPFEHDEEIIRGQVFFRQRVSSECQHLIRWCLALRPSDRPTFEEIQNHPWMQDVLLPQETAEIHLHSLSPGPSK
KDR kinase, sequence (P35968 20-1356): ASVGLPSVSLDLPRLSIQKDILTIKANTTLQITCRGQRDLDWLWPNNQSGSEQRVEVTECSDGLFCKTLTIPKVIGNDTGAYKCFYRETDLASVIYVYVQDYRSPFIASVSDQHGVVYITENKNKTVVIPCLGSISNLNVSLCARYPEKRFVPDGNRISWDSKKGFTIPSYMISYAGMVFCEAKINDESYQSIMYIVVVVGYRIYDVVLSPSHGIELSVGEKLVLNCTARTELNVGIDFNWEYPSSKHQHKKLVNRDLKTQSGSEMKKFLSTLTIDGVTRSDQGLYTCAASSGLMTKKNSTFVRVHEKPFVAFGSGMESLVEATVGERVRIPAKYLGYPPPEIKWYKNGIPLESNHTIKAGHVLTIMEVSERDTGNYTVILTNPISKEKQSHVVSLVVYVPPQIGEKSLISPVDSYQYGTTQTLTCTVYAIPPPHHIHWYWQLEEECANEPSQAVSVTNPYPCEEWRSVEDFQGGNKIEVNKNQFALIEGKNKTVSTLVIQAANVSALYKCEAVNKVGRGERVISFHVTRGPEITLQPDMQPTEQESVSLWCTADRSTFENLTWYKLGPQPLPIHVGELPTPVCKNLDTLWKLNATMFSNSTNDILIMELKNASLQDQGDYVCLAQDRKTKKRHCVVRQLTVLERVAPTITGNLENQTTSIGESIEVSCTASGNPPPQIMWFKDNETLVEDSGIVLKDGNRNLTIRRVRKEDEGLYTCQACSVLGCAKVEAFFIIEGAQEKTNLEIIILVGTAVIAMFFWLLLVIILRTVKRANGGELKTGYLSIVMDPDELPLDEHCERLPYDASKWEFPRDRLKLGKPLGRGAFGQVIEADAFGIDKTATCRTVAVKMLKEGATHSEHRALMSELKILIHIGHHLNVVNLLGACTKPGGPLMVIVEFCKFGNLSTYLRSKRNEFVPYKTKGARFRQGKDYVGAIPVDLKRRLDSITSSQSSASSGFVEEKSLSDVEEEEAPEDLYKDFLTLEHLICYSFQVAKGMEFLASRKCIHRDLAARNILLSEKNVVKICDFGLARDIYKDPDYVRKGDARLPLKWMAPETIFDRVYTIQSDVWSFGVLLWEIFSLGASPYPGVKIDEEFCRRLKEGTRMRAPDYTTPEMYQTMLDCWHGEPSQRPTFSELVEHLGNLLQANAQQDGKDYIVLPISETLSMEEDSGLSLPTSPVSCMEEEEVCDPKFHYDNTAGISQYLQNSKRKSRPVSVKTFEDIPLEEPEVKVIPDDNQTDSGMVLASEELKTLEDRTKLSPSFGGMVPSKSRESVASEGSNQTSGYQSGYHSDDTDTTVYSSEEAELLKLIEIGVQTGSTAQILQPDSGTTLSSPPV

With `CN(C)C(=O)c1ccc(F)c(-c2ccc(N)c(C(=O)Nc3cnccc3N3CCC[C@H](N)C3)n2)c1` [Example 328, 3-amino-6-(5-dimethyl-carbamoyl-2-fluoro-phenyl)-pyridine-2-carboxylic acid ((S)-3-amino-3,4,5,6-tetra-hydro-2H-[1,4′]bipyridinyl-3′-yl)-amide], the IC50 at Pim1 kinase (setting [3]), at Pim2 kinase (read-out: IC50 (μM) PIM2) and on Pim3 kinase (read-out: IC50 (μM) PIM3) was under 1 µM throughout. Moreover, the EC50 in the assay with HEL 92.1.7 cells was 1 to 5 µM; in assay [1] (read-out: EC50 (μM) MM1.s), under 1 µM; in assay [2] (read-out: EC50 (μM) KMS11), under 1 µM.

As to `N[C@H]1CCCN(c2ccncc2NC(=O)c2cccc(-c3c(F)cccc3F)n2)C1` [Example 454, 6-(2,6-Difluoro-phenyl)-pyridine-2-carboxylic acid (3-amino-3,4,5,6-tetrahydro-2H-[1,4′]bi-pyridinyl-3′-yl)-amide], the concentration for half-maximal inhibition (IC50) is under 1 µM on Pim1 kinase (setting [3]), 10 to 25 µM at KDR kinase, under 1 µM on Pim2 kinase (read-out: IC50 (μM) PIM2) and under 1 µM on Pim3 kinase (read-out: IC50 (μM) PIM3). The EC50 was 5 to 10 µM in assay [1] (read-out: EC50 (μM) MM1.s) and 1 to 5 µM in assay [2] (read-out: EC50 (μM) KMS11).

As to `Nc1cc(F)c(-c2c(F)cccc2F)nc1C(=O)Nc1cnccc1N1CCC[C@H](N)C1` [Example 516, 3-Amino-6-(2,6-difluoro-phenyl)-5-fluoro-pyridine-2-carboxylic acid (3-amino-3,4,5,6-tetrahydro-2H-[1,4′]bipyridinyl-3′-yl)-amide], the half-maximal inhibitory concentration (IC50) on Pim1 kinase (setting [3]), on Pim2 kinase (read-out: IC50 (μM) PIM2) and on Pim3 kinase (read-out: IC50 (μM) PIM3) was under 1 µM each time. For the same molecule, the half-maximal effective concentration (EC50) in assay [1] (read-out: EC50 (μM) MM1.s) and in assay [2] (read-out: EC50 (μM) KMS11) was under 1 µM in each case.

`Nc1cc(F)c(-c2ccccc2F)nc1C(=O)Nc1cnccc1N1CCC[C@H](N)C1` [Example 517, 3-Amino-5-fluoro-6-(2-fluoro-phenyl)-pyridine-2-carboxylic acid (3-amino-3,4,5,6-tetrahydro-2H-[1,4′]bipyridinyl-3′-yl)-amide]: the IC50 at Pim1 kinase (setting [3]), at Pim2 kinase (read-out: IC50 (μM) PIM2) and at Pim3 kinase (read-out: IC50 (μM) PIM3) was under 1 µM throughout. The concentration for a half-maximal effect (EC50) in assay [1] (read-out: EC50 (μM) MM1.s) and in assay [2] (read-out: EC50 (μM) KMS11) was 1 to 5 µM each time.

Take `COCCOc1nc(-c2ccc(N)c(C(=O)Nc3cnccc3N3CCC[C@H](N)C3)n2)cnc1N` [Example 520, 3-Amino-6-[5-amino-6-(2-methoxy-ethoxy)-pyrazin-2-yl]-pyridine-2-carboxylic acid (3-amino-3,4,5,6-tetrahydro-2H-[1,4′]bipyridinyl-3′-yl)-amide]: the IC50 at Pim1 kinase (setting [3]) is under 1 µM; at KDR kinase, 1 to 10 µM; at Pim2 kinase (read-out: IC50 (μM) PIM2), under 1 µM; at Pim3 kinase (read-out: IC50 (μM) PIM3), under 1 µM. Moreover, the half-maximal effective concentration (EC50) in assay [1] (read-out: EC50 (μM) MM1.s) and in assay [2] (read-out: EC50 (μM) KMS11) was 5 to 10 µM in each case.

Turning to `N[C@H]1CCCN(c2ccncc2NC(=O)c2nc(-c3c(F)cccc3F)ccc2F)C1` [Example 570, 6-(2,6-Difluoro-phenyl)-3-fluoro-pyridine-2-carboxylic acid (3-amino-3,4,5,6-tetrahydro-2H-[1,4′]bipyridinyl-3′-yl)-amide], the half-inhibitory concentration (IC50) at Pim1 kinase (setting [4]), on Pim2 kinase (read-out: PIM2 IC50) and at Pim3 kinase (read-out: PIM3 IC50) was under 1 µM throughout. The EC50 in assay [1] (read-out: MM1.s EC50) and in assay [2] (read-out: KMS11 EC50) was 1 to 5 µM throughout.

In the case of `CCCOc1ccc(F)c(-c2ccc(N)c(C(=O)Nc3cnccc3N3C[C@@H](N)C[C@@H](F)C3)n2)c1` [Example 577, 3-Amino-6-(2-fluoro-5-propoxy-phenyl)-pyridine-2-carboxylic acid (3-amino-5-fluoro-3,4,5,6-tetrahydro-2H-[1,4′]bipyridinyl-3′-yl)-amide], the concentration for half-maximal inhibition (IC50) on Pim1 kinase (setting [4]), on Pim2 kinase (read-out: PIM2 IC50) and at Pim3 kinase (read-out: PIM3 IC50) was under 1 µM each time. The 50% effective concentration (EC50) in assay [1] (read-out: MM1.s EC50) and in assay [2] (read-out: KMS11 EC50) was 1 to 5 µM each time.

In the case of `CCCOc1ccc(F)c(-c2ccc(N)c(C(=O)Nc3cnccc3N3C[C@@H](N)C[C@@H](OC)C3)n2)c1` [Example 579, 3-Amino-6-(2-fluoro-5-propoxy-phenyl)-pyridine-2-carboxylic acid (3-amino-5-methoxy-3,4,5,6-tetrahydro-2H-[1,4′]bi-pyridinyl-3′-yl)-amide], the 50% inhibitory concentration (IC50) on Pim1 kinase (setting [4]), at Pim2 kinase (read-out: PIM2 IC50) and on Pim3 kinase (read-out: PIM3 IC50) was under 1 µM each time. The EC50 is 1 to 5 µM in assay [1] (read-out: MM1.s EC50) and under 1 µM in assay [2] (read-out: KMS11 EC50).

With `CO[C@@H]1C[C@H](N)CN(c2ccncc2NC(=O)c2nc(-c3ccccc3)ccc2N)C1` [Example 580, 3-Amino-6-phenyl-pyridine-2-carboxylic acid (3-amino-5-methoxy-3,4,5,6-tetrahydro-2H-[1,4′]bipyridinyl-3′-yl)-amide], the concentration for half-maximal inhibition (IC50) on Pim1 kinase (setting [4]), on Pim2 kinase (read-out: PIM2 IC50) and on Pim3 kinase (read-out: PIM3 IC50) was under 1 µM each time. Further, the EC50 in assay [1] (read-out: MM1.s EC50) and in assay [2] (read-out: KMS11 EC50) was 1 to 5 µM throughout.

With `Nc1ccc(-c2c(F)cccc2F)nc1C(=O)Nc1cnccc1N1CC[C@@H](O)[C@H](N)C1` [Example 679, 3-Amino-6-(2,6-difluoro-phenyl)-pyridine-2-carboxylic acid (3-amino-4-hydroxy-3,4,5,6-tetrahydro-2H-[1,4′]bi-pyridinyl-3′-yl)-amide], the half-maximal inhibitory concentration (IC50) at Pim1 kinase, on Pim2 kinase (read-out: PIM2 IC50) and on Pim3 kinase (read-out: PIM3 IC50) was under 1 µM throughout. For the same molecule, the EC50 in assay [1] (read-out: MM1.s EC50) was under 1 µM; in assay [2] (read-out: KMS11 EC50) it was 1 to 5 µM.

As to `N[C@@H]1CN(c2ccncc2NC(=O)c2ccc(F)c(-c3c(F)cccc3F)n2)CC[C@H]1O` [Example 683, 6-(2,6-Difluoro-phenyl)-5-fluoro-pyridine-2-carboxylic acid (3-amino-4-hydroxy-3,4,5,6-tetrahydro-2H-[1,4′]bi-pyridinyl-3′-yl)-amide], the IC50 on Pim1 kinase (setting [4]), at Pim2 kinase (read-out: PIM2 IC50) and on Pim3 kinase (read-out: PIM3 IC50) was under 1 µM each time. Besides, the figures for the EC50 in assay [1] (read-out: MM1.s EC50) and in assay [2] (read-out: KMS11 EC50) were 1 to 5 µM and under 1 µM, respectively.

For the molecule `Nc1ccc(-c2ncccc2F)nc1C(=O)Nc1cnccc1N1CCC[C@H](N)C1` [Example 702, 5-Amino-3′-fluoro-[2,2′]bi-pyridinyl-6-carboxylic acid (3-amino-3,4,5,6-tetrahydro-2H-[1,4′]bipyridinyl-3′-yl)-amide], the IC50 on Pim1 kinase (setting [4]), at Pim2 kinase (read-out: PIM2 IC50) and on Pim3 kinase (read-out: PIM3 IC50) was under 1 µM each time. Also, the EC50 in assay [1] (read-out: MM1.s EC50) and in assay [2] (read-out: KMS11 EC50) was 1 to 5 µM in each case.

In the case of `CC(C)NC(=O)c1ccc(F)c(-c2nc(C(=O)Nc3cnccc3N3CCC[C@H](N)C3)c(N)cc2F)c1F` [Example 736, 3-Amino-6-(2,6-difluoro-3-isopropylcarbamoyl-phenyl)-5-fluoro-pyridine-2-carboxylic acid (3-amino-3,4,5,6-tetra-hydro-2H-[1,4′]bipyridinyl-3′-yl)-amide], the IC50 at Pim1 kinase (setting [4]), on Pim2 kinase (read-out: PIM2 IC50) and at Pim3 kinase (read-out: PIM3 IC50) was under 1 µM in each case. The concentration giving a half-maximal response (EC50) was 1 to 5 µM in assay [1] (read-out: MM1.s EC50) and under 1 µM in assay [2] (read-out: KMS11 EC50).

For `Nc1cc(F)c(-c2ncccc2F)nc1C(=O)Nc1cnccc1N1CCC[C@H](N)C1` [Example 744, 5-Amino-3,3′-difluoro-[2,2′]bi-pyridinyl-6-carboxylic acid (3-amino-3,4,5,6-tetrahydro-2H-[1,4′]bipyridinyl-3′-yl)-amide], the concentration for half-maximal inhibition (IC50) on Pim1 kinase (setting [4]), at Pim2 kinase (read-out: PIM2 IC50) and on Pim3 kinase (read-out: PIM3 IC50) was under 1 µM in each case. The EC50 in assay [1] (read-out: MM1.s EC50) and in assay [2] (read-out: KMS11 EC50) was 1 to 5 µM each time.

Turning to `CC(C)NC(=O)c1ccc(F)c(-c2ccc(N)c(C(=O)Nc3cnccc3N3CC[C@H](O)[C@H](N)C3)n2)c1` [Example 753, 3-Amino-6-(2-fluoro-5-isopropyl-carbamoyl-phenyl)-pyridine-2-carboxylic acid (3-amino-4-hydroxy-3,4,5,6-tetrahydro-2H-[1,4′]bipyridinyl-3′-yl)-amide], the 50% inhibitory concentration (IC50) at Pim1 kinase (setting [4]), on Pim2 kinase (read-out: PIM2 IC50) and at Pim3 kinase (read-out: PIM3 IC50) was under 1 µM throughout. In addition, the EC50 in assay [1] (read-out: MM1.s EC50) is under 1 µM; in assay [2] (read-out: KMS11 EC50) it was 1 to 5 µM.

For the molecule `Nc1ccc(-c2c(F)cccc2F)nc1C(=O)Nc1cnccc1N1CC[C@H](O)[C@H](N)C1` [Example 754, 3-Amino-6-(2,6-difluoro-phenyl)-pyridine-2-carboxylic acid (3-amino-4-hydroxy-3,4,5,6-tetra-hydro-2H-[1,4′]bipyridinyl-3′-yl)-amide], the IC50 against Pim1 kinase, at Pim2 kinase (read-out: PIM2 IC50) and on Pim3 kinase (read-out: PIM3 IC50) was under 1 µM in each case. Moreover, the EC50 in assay [1] (read-out: MM1.s EC50) is 1 to 5 µM; in assay [2] (read-out: KMS11 EC50), under 1 µM.

One may read the IC50 as the concentration that inhibits the measured activity by half. What is called EC50 is the concentration at which the effect is half-maximal.

The record behind these values is US20140249135A1, “PIM KINASE INHIBITORS AND METHODS OF THEIR USE” (NOVARTIS AG, priority 2007, published 2014).
